Measured values reported in patent US7767411B2, “Assay system for specific inhibitors of protein kinase C-related kinases” (Universitaetsklinikum Freiburg, priority 2004, dated 2010).

How the values were obtained:
[1] = tested on: androgen receptor (AR) activation by RhoA V14; test: ligand-dependent activation of the androgen receptor (AR) by RhoA V14, MMTV-LUC reporter in 293 cells; type: cell-based; details: RhoA V14 plasmid, with or without R 1881 10^-10 M, 5×10^−7 M Ro31-8220
From the text: In another preferred embodiment, the assay system comprises the reaction of the ligand-dependent activation of the androgen receptor (AR) by RhoA V 14. […] Reference is made, in this respect, to FIG. 2.

[2] = tested on: MCF-7 cells; test: androgen receptor agonist R 1881-induced cell proliferation in MCF-7 cells; type: cell-based; details: presence or absence of R1881, FIG. 3
Method: The inventors studied the cell proliferation inter alia in MCF-7 cells which is induced by the androgen receptor agonist R 1881 under the activating/promoting action of PRKs. MCF-7 cells were cultivated in RPMI 1640 supplemented with 2 g/l NaHCO3, L-Glu, Pen/Strep, 10% FCS (fetal calf serum), and insulin 1U/ml in the presence or absence of R1881 and Ro31-8220 at the indicated concentrations. The cell proliferation assay was performed according to the manufacture's instructions (Roche, #1647229).

[3] = tested on: protein kinases; details: described in S. P. Davies et al.; cited from earlier work

| SMILES | agonist-dependent androgen receptor (AR) activation by RhoA V14 [1] | R 1881-induced cell proliferation [2] | protein kinases acted on (specificity) [3] |
| --- | --- | --- | --- |
| Cn1cc(C2=C(c3cn(CCCSC(=N)N)c4ccccc34)C(=O)NC2=O)c2ccccc21 [Ro31-8220] | abolished | inhibited | act on PRKs, but also on MSK1, S6K1 and other protein kinases |
| C[C@@H](N)[C@H]1CC[C@H](C(=O)Nc2ccncc2)CC1 [Y 27632] |  |  | act on PRKs, but also on MSK1, ROCK-II and MAPKAP-K1b |
